Experimental data as given in patent US11377442B2, “Small molecule agonists and antagonists of NR2F6 activity” (ZANDER THERAPEUTICS, INC., priority 2016, dated 2022).
Read-outs that look alike come from different tables or passages of the source. Blank lines part the entries; values can stand above or below the molecule they belong to.

Tests used:
Assay type in all cases: cell-based
NR2F6 = molecular target: T1, NR2F6 (Homo sapiens, UniProt P10588); assay: NR2F6 agonist screening, Firefly signal cmpd/DMSO; conditions: for Firefly, cmpd/DMSO repeat 1 / Firefly, cmpd/DMSO repeat 2: first set screening, 10 μM
T1 construct: expressed in transfected cells; also transient transfection
T1 sequence (P10588 1-404): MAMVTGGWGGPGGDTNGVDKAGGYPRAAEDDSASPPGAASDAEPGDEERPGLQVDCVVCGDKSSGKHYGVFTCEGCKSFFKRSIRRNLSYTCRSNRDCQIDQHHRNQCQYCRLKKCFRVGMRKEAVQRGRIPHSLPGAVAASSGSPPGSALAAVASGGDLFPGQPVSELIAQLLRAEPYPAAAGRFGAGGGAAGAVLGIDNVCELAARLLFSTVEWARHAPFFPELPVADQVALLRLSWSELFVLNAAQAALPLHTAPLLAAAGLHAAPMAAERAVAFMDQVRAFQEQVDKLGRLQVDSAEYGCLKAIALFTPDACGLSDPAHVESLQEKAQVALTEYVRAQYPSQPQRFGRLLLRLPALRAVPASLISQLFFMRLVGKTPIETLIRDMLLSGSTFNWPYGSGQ

ERα = molecular target: T2, ERα (Homo sapiens, UniProt P03372); assay: Counterscreening, Firefly signal with ERα transient transfection (Firefly_ERa); conditions: ERα transient transfection, 10 μM
T2 construct: expressed in transfected cells
T2 sequence (P03372 1-595): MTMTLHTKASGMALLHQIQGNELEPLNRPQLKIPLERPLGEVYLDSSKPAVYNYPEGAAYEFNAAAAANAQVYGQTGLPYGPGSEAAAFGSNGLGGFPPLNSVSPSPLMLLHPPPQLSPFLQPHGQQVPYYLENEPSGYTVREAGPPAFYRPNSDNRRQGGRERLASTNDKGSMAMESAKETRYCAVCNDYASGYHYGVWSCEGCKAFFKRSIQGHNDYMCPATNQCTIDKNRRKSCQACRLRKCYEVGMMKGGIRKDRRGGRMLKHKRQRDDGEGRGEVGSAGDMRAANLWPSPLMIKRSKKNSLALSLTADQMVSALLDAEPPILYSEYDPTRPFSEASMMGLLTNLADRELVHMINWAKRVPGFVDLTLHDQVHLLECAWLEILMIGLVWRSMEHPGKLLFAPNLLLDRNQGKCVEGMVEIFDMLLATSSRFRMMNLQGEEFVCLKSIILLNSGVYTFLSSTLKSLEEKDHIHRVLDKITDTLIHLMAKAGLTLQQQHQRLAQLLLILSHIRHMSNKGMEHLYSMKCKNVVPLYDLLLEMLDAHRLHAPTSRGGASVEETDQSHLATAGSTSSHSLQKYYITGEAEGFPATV
Protocol: The methodology for screening candidate compounds as NR2F6 agonists was as follows: For primary screening, hit criteria was ACT %>DMSO control+5*SD (DSO control) at 10 μM, or any compound with S/B>2. For rescreening, hit criteria was ACT %>DMSO control+3*SD (DSO control) in each replicate at 10 μM. For counterscreening, hit criteria was mean ACT<DMSO control+3*SD (DMSO control) with ERα transient transfection in duplicate at 10 μM.

Renilla = Renilla signal in NR2F6 agonist screening, cmpd/DMSO
Renilla_ERa = assay: Renilla signal in ERα counterscreen (Renilla_ERa); conditions: ERα transient transfection, 10 μM
HEK293 pGL4 = assay: Firefly_pGL signal, cmpd/DMSO (pGL4 control cells); conditions: Homo sapiens
NR2F6 LBD = molecular target: T3, NR2F6 LBD (Homo sapiens, UniProt P10588); assay: NR2F6 LBD transient transfection; conditions: LBD
T3 construct: expressed in transfected cells
T3 sequence (P10588 165-393 limits assumed): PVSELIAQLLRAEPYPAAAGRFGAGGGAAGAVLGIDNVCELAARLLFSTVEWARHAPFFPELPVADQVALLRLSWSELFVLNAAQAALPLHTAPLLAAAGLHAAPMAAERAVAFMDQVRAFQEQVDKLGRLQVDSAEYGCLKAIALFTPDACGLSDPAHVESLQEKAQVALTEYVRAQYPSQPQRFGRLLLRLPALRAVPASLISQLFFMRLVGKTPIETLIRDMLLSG
Method in brief: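 LBD-transfected cells treated at 40, 10, 2 and 0.5 μM (4 replicates); cytotoxicity measured in parallel, normalized to DMSO (0%) and zero signal (100%). Higher concentrations excluded where signal loss reflected toxicity.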

[1] = first set screening, 10 μM, repeat 1
[2] = first set screening, 10 μM, repeat 2
[3] = Renilla, F4, read-out: Renilla, F4, cmpd/DMSO (mean)
[4] = Renilla, F4, 1% FBS, read-out: Renilla, F4, 1% FBS, cmpd/DMSO (mean)
[5] = Renilla, F4, 10% FBS, read-out: Renilla, F4, 10% FBS, cmpd/DMSO (mean)

Firefly, cmpd/DMSO repeat 1 (NR2F6): 2.7
Firefly, cmpd/DMSO repeat 2 (NR2F6): 2.2
Firefly_ERa, cmpd/DMSO repeat 1 (ERα): 1.0
Firefly_ERa, cmpd/DMSO repeat 2 (ERα): 0.8
SMILES: COc1ccc(-c2cc(C(F)(F)F)nc(S(=O)(=O)CCCC(=O)Nc3sc4c(c3C(N)=O)CCCC4)n2)cc1OC [Compound C2]
fold induction at 10 µM (Renilla; Renilla, first set screening, 10 μM, repeat 1, read-out: Renilla, cmpd/DMSO repeat 1): 6
fold induction at 10 µM (Renilla; Renilla, first set screening, 10 μM, repeat 2, read-out: Renilla, cmpd/DMSO repeat 2): 5.3
fold induction at 10 µM (Renilla_ERa; repeat 1, read-out: Renilla_ERa, cmpd/DMSO repeat 1): 1.7
fold induction at 10 µM (Renilla_ERa; repeat 2, read-out: Renilla_ERa, cmpd/DMSO repeat 2): 1.6

Firefly, cmpd/DMSO repeat 1 (NR2F6): 2.4
Firefly, cmpd/DMSO repeat 2 (NR2F6): 2.2
Firefly_ERa, cmpd/DMSO repeat 1 (ERα): 1.1
Firefly_ERa, cmpd/DMSO repeat 2 (ERα): 1.0
SMILES: CCn1c2c(c(=O)[nH]c1=O)C(c1ccc(C(C)C)cc1)C1=C(N2)c2ccccc2C1=O (stereo not drawn) [Compound 21]
Renilla, cmpd/DMSO repeat 1 (Renilla; [1]): 3.8
Renilla, cmpd/DMSO repeat 2 (Renilla; [2]): 3.0
Renilla_ERa, cmpd/DMSO repeat 1 (Renilla_ERa; repeat 1): 1.1
Renilla_ERa, cmpd/DMSO repeat 2 (Renilla_ERa; repeat 2): 0.9

Firefly, cmpd/DMSO repeat 1 (NR2F6): 3.0
Firefly, cmpd/DMSO repeat 2 (NR2F6): 1.9
Firefly_ERa, cmpd/DMSO repeat 1 (ERα): 1.8
Firefly_ERa, cmpd/DMSO repeat 2 (ERα): 1.8
SMILES: Nc1nonc1-c1noc(-c2cccc(COc3ccc(Cl)cc3Cl)c2)n1 [Compound 23]
Renilla, cmpd/DMSO repeat 1 (Renilla; [1]): 4.6
Renilla, cmpd/DMSO repeat 2 (Renilla; [2]): 3.4
Renilla_ERa, cmpd/DMSO repeat 1 (Renilla_ERa; repeat 1): 1.1
Renilla_ERa, cmpd/DMSO repeat 2 (Renilla_ERa; repeat 2): 1.2

Firefly, cmpd/DMSO repeat 1 (NR2F6): 2.2
Firefly, cmpd/DMSO repeat 2 (NR2F6): 2.1
Firefly_ERa, cmpd/DMSO repeat 1 (ERα): 1.5
Firefly_ERa, cmpd/DMSO repeat 2 (ERα): 1.7
SMILES: Cc1ccnc(NC(=O)c2cc3sc4ccccc4c3s2)c1 [Compound 20]
Renilla, cmpd/DMSO repeat 1 (Renilla; [1]): 4.4
Renilla, cmpd/DMSO repeat 2 (Renilla; [2]): 4.8
Renilla_ERa, cmpd/DMSO repeat 1 (Renilla_ERa; repeat 1): 1.1
Renilla_ERa, cmpd/DMSO repeat 2 (Renilla_ERa; repeat 2): 0.9

Firefly F4, cmpd/DMSO (mean) (NR2F6; 0.5 uM): 1.6
Firefly F4, cmpd/DMSO (mean) (NR2F6; 2 uM): 3.3
Firefly F4, cmpd/DMSO (mean) (NR2F6; 10 uM): 6.8
Firefly F4, cmpd/DMSO (mean) (NR2F6; 40 uM): 0.7
F4, Firefly/Renilla for S/B(F4) > 3 (NR2F6; 1% FBS, 2 uM): 2.3
Firefly, F4/pGL4 for S/B(F4) > 3 (NR2F6; 1% FBS, 2 uM): 1.3
F4, Firefly/Renilla for S/B(F4) > 3 (NR2F6; 10% FBS, 10 uM): 3.9
Firefly, F4/pGL4 for S/B(F4) > 3 (NR2F6; 10% FBS, 10 uM): 3.1
Firefly, F4, 1% FBS, cmpd/DMSO (mean) (NR2F6; 1% FBS, 0.5 uM): 1.4
Firefly, F4, 1% FBS, cmpd/DMSO (mean) (NR2F6; 1% FBS, 2 uM): 3.2
Firefly, F4, 1% FBS, cmpd/DMSO (mean) (NR2F6; 1% FBS, 10 uM): 2.8
Firefly, F4, 1% FBS, cmpd/DMSO (mean) (NR2F6; 1% FBS, 40 uM): 0.3
Firefly, F4, 10% FBS, cmpd/DMSO (mean) (NR2F6; 10% FBS, 0.5 uM): 1.5
Firefly, F4, 10% FBS, cmpd/DMSO (mean) (NR2F6; 10% FBS, 2 uM): 1.8
Firefly, F4, 10% FBS, cmpd/DMSO (mean) (NR2F6; 10% FBS, 10 uM): 11
Firefly, F4, 10% FBS, cmpd/DMSO (mean) (NR2F6; 10% FBS, 40 uM): 0.5
Activity, cmpd/DMSO (NR2F6; Table 31): 6.6
Firefly LBD, cmpd/DMSO (mean) (NR2F6 LBD; 0.5 uM): 1.2
Firefly LBD, cmpd/DMSO (mean) (NR2F6 LBD; 2 uM): 2.5
Firefly LBD, cmpd/DMSO (mean) (NR2F6 LBD; 10 uM): 3.1
Firefly LBD, cmpd/DMSO (mean) (NR2F6 LBD; 40 uM): 0.6
SMILES: O=S1(=O)C[C@H](N2CCCC2)[C@@H](S(=O)(=O)c2ccc(Cl)cc2)C1 [Compound D122]
fold induction at 0.5 µM (Renilla; [3]): 1.1
fold induction at 2 µM (Renilla; [3]): 1.3
fold induction at 10 µM (Renilla; Renilla, F4, 10 uM, read-out: Renilla, F4, cmpd/DMSO (mean)): 2.2
fold induction at 40 µM (Renilla; Renilla, F4, 40 uM, read-out: Renilla, F4, cmpd/DMSO (mean)): 0.2
fold induction at 0.5 µM (Renilla; [4]): 1.2
fold induction at 2 µM (Renilla; [4]): 1.4
fold induction at 10 µM (Renilla; Renilla, F4, 1% FBS, 10 uM, read-out: Renilla, F4, 1% FBS, cmpd/DMSO (mean)): 2.2
fold induction at 0.5 µM (Renilla; [5]): 1
fold induction at 2 µM (Renilla; [5]): 1
fold induction at 10 µM (Renilla; Renilla, F4, 10% FBS, 10 uM, read-out: Renilla, F4, 10% FBS, cmpd/DMSO (mean)): 2.9
fold induction at 0.5 µM (HEK293 pGL4; HEK293, 0.5 uM, pGL4, read-out: Firefly pGL4, cmpd/DMSO (mean)): 1.3
fold induction at 2 µM (HEK293 pGL4; HEK293, 2 uM, pGL4, read-out: Firefly pGL4, cmpd/DMSO (mean)): 2.4
fold induction at 10 µM (HEK293 pGL4; HEK293, 10 uM, pGL4, read-out: Firefly pGL4, cmpd/DMSO (mean)): 2.3
fold induction at 40 µM (HEK293 pGL4; HEK293, 40 uM, pGL4, read-out: Firefly pGL4, cmpd/DMSO (mean)): 0.6
fold induction at 0.5 µM (HEK293 pGL4; HEK293, pGL4, 1% FBS, 0.5 uM, read-out: Firefly, pGL4, 1% FBS, cmpd/DMSO (mean)): 1.1
fold induction at 2 µM (HEK293 pGL4; HEK293, pGL4, 1% FBS, 2 uM, read-out: Firefly, pGL4, 1% FBS, cmpd/DMSO (mean)): 2.5
fold induction at 10 µM (HEK293 pGL4; HEK293, pGL4, 1% FBS, 10 uM, read-out: Firefly, pGL4, 1% FBS, cmpd/DMSO (mean)): 2.6
fold induction at 40 µM (HEK293 pGL4; HEK293, pGL4, 1% FBS, 40 uM, read-out: Firefly, pGL4, 1% FBS, cmpd/DMSO (mean)): 0.7
fold induction at 0.5 µM (HEK293 pGL4; HEK293, pGL4, 10% FBS, 0.5 uM, read-out: Firefly, pGL4, 10% FBS, cmpd/DMSO (mean)): 0.9
fold induction at 2 µM (HEK293 pGL4; HEK293, pGL4, 10% FBS, 2 uM, read-out: Firefly, pGL4, 10% FBS, cmpd/DMSO (mean)): 2.2
fold induction at 10 µM (HEK293 pGL4; HEK293, pGL4, 10% FBS, 10 uM, read-out: Firefly, pGL4, 10% FBS, cmpd/DMSO (mean)): 3.7
fold induction at 40 µM (HEK293 pGL4; HEK293, pGL4, 10% FBS, 40 uM, read-out: Firefly, pGL4, 10% FBS, cmpd/DMSO (mean)): 0.7
